Like-named read-outs stand apart in the source and are kept apart here.
How the values were obtained:
[1] = Seven month follow-up of THA vs AZT in HIV infected patients (open study): withdrawals for toxicity; assay type: in vivo, human; conditions: AZT n = 52; THA n = 51
Protocol: (§1) 70 patients (61 males, 11 females) with HIV infection (69 stage IV, 10 stages II and III), received either AZT (46 patients 600-1200 mg./day) or THA (26 patients 150-250 mg/day).
(§2) 13 patients were treated by THA alone, 20 by AZT alone, 26 by AZT then THA and 13 by THA then AZT. Mean duration of treatment was 5.8 months for 53 courses of AZT 5.4 months for 52 courses of THA.

HIV = assay: Seven month follow-up of THA vs AZT in HIV infected patients (open study): clinical results; assay type: in vivo, human; conditions: AZT n = 52; THA n = 51
Protocol: as §1, §2

T4 = tested on: T4
Protocol: Seven Month Follow-Up of Tacrine (THA) vs Zidovudine (AZT) in 72 HIV Infected Patients
Comparison of serological and clinical status of HIV infected patients after THA versus AZT treatment in an open study.
[…] (61 males, 11 females) with HIV infection ([…], 10 stages II and III), received either AZT (46 patients 600-1200 mg./day) or THA (26 patients 150-250 mg/day). In cases of intolerance or inefficacy, treatment was discontinued and patients were treated by the other drug.

Agp 24 = assay: Seven month follow-up of THA vs AZT in HIV infected patients (open study): Agp 24; assay type: in vivo
Excerpt: Expressed in mean variation (%) in comparison with Do values.

[2] = biological target: T1, reverse transcriptase of the HIV 1 virus (Human immunodeficiency virus type 1 group M subtype B, UniProt P04585); assay: Action on reverse transcriptase of the HIV 1 virus (3H thymidine triphosphate incorporation); assay type: biochemical; conditions: 50% inhibition (Di50) of HIV 1 reverse transcriptase, 37° C., 1 hour
T1 construct: Action on Reverse Transcriptase of the HIV 1 Virus; made in house; host or cells: HIV 1 virus grown on CEM cells; virus pelleted from the culture medium and resuspended in Triton X 100 (viral lysate, not recombinant)
Protocol: For the direct study of the action of the product on the activity of the reverse transcriptase, the virus was concentrated by ultracentrifugation and the plugs of virus removed from the culture medium are resuspended in a solution containing 0.15% Triton X 100, 0.05M Tris at pH 7.8 and 20% glycerol.
These preparations, frozen at -20° C., are active for several months and served for the direct measurement of the products on enzymatic activity.
The THA is diluted as stated above and added to 40 μl of the incubation solution under a volume of 5.5 μl before the addition of 10 μl of the enzymatic preparation. Initial concentrations of the product are thus 10 times more concentrated than the final dilution in the presence of the enzyme. The controls received 5.5 μl of water.

Cc1cn([C@H]2C[C@H](N=[N+]=[N-])[C@@H](CO)O2)c(=O)[nH]c1=O [AZT]
Withdrawals for toxicity, number [1]: 29
Withdrawals for toxicity, percent [1]: 49%
Deaths, number (HIV): 7
Deaths, percent (HIV): 12%
Kaposi Emergence, number (HIV): 3
Kaposi Emergence, percent (HIV): 5%
Opportunistic Infections, number (HIV): 27
Opportunistic Infections, percent (HIV): 46%
T4 /mm^3, mean variation (%) in comparison with D0 (T4; D1mth): +0.5%
T4 /mm^3, mean variation (%) in comparison with D0 (T4; D2mth): +8.1%
T4 /mm^3, mean variation (%) in comparison with D0 (T4; D3mth): +18.5%
T4 /mm^3, mean variation (%) in comparison with D0 (T4; D4mth): +8.8%
T4 /mm^3, mean variation (%) in comparison with D0 (T4; D5mth): +17.2%
T4 /mm^3, mean variation (%) in comparison with D0 (T4; D6mth): -40%
T4 /mm^3, mean variation (%) in comparison with D0 (T4; D7mth): -40%
Agp 24, mean variation (%) in comparison with D0 (Agp 24; D1mth): -20.6%
Agp 24, mean variation (%) in comparison with D0 (Agp 24; D2mth): +3.4%
Agp 24, mean variation (%) in comparison with D0 (Agp 24; D3mth): -1%
Agp 24, mean variation (%) in comparison with D0 (Agp 24; D4mth): +55.6%
Agp 24, mean variation (%) in comparison with D0 (Agp 24; D5mth): +36.5%
Agp 24, mean variation (%) in comparison with D0 (Agp 24; D6mth): +173%
Agp 24, mean variation (%) in comparison with D0 (Agp 24; D7mth): +142%

O=C(O)P(=O)(O)O [phosphonoformate]
IC50 [2]: 1000 nM
